Results from the supplement of paper PMC4862054.

What was measured:
Settings in all cases: incubation time: 72 h
HCC1599 [1] = assay: normalised response (% of control), CellTiter-Glo; higher = more viable cells (100 = DMSO, 0 = benzethonium chloride kill control)
Description: (§1)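 DSRT, 72 h incubation, CellTox Green / CellTiter-Glo readout. Signal is normalised to DMSO and benzethonium chloride controls. Value is the normalised response at dose 3.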

CAL-120 [2] = assay: as above
Description: as §1

MCF-10A [3] = assay: as above
Description: as §1

MDA-MB-436 [4] = assay: as above
Description: as §1

HCC1937 [5] = assay: as above
Description: as §1

MDA-MB-468 [6] = assay: as above
Description: as §1

CAL-51 [7] = assay: as above
Description: as §1

BT-474 [8] = assay: as above
Description: as §1

Hs578T [9] = assay: as above
Description: as §1

HDQ-P1 [10] = assay: as above
Description: as §1

SK-BR-3 = assay: as above
Description: as §1

DU-4475 [11] = assay: as above
Description: as §1

MFM-223 [12] = assay: as above
Description: as §1

CAL-85-1 [13] = assay: as above
Description: as §1

MDA-MB-231 [14] = assay: as above
Description: as §1

CAL-148 [15] = assay: as above
Description: as §1

BT-549 [16] = assay: as above
Description: as §1

MDA-MB-453 [17] = assay: as above
Description: as §1

HCC1143 [18] = assay: as above
Description: as §1

HCC1599 [19] = assay: normalised response (% of control), CellTox Green; higher = less cell death (100 = DMSO, 0 = benzethonium chloride kill control)
Method in brief: (§2)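 The table gives the normalised signal for a single concentration in each entry. Breast cancer cell lines were seeded (20 µl suspension) into 384-well plates holding compound at 5 concentrations in 10-fold steps over a compound-specific 10,000-fold range and incubated 72 h, then read for CellTox Green fluorescence (485/520 nm) and CellTiter-Glo luminescence. Normalisation on each plate used 0.1 % DMSO (100) and a positive kill control (0).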

CAL-120 [20] = assay: as above
Method in brief: as §2

MCF-10A [21] = assay: as above
Method in brief: as §2

MDA-MB-436 [22] = assay: as above
Method in brief: as §2

HCC1937 [23] = assay: as above
Method in brief: as §2

MDA-MB-468 [24] = assay: as above
Method in brief: as §2

CAL-51 [25] = assay: as above
Method in brief: as §2

BT-474 [26] = assay: as above
Method in brief: as §2

Hs578T [27] = assay: as above
Method in brief: as §2

DU-4475 [28] = assay: as above
Method in brief: as §2

MFM-223 [29] = assay: as above
Method in brief: as §2

CAL-85-1 [30] = assay: as above
Method in brief: as §2

MDA-MB-231 [31] = assay: as above
Method in brief: as §2

CAL-148 [32] = assay: as above
Method in brief: as §2

BT-549 [33] = assay: as above
Method in brief: as §2

MDA-MB-453 [34] = assay: as above
Method in brief: as §2

HCC1143 [35] = assay: as above
Method in brief: as §2

HDQ-P1 [36] = assay: as above
Method in brief: as §2

Row | SMILES | normalised response (HCC1599 [1]) [%] | normalised response (CAL-120 [2]) [%] | normalised response (MCF-10A [3]) [%] | normalised response (MDA-MB-436 [4]) [%] | normalised response (HCC1937 [5]) [%] | normalised response (MDA-MB-468 [6]) [%] | normalised response (CAL-51 [7]) [%] | normalised response (BT-474 [8]) [%] | normalised response (Hs578T [9]) [%] | normalised response (HDQ-P1 [10]) [%] | normalised response (SK-BR-3) [%] | normalised response (DU-4475 [11]) [%] | normalised response (MFM-223 [12]) [%] | normalised response (CAL-85-1 [13]) [%] | normalised response (MDA-MB-231 [14]) [%] | normalised response (CAL-148 [15]) [%] | normalised response (BT-549 [16]) [%] | normalised response (MDA-MB-453 [17]) [%] | normalised response (HCC1143 [18]) [%] | normalised response (HCC1599 [19]) [%] | normalised response (CAL-120 [20]) [%] | normalised response (MCF-10A [21]) [%] | normalised response (MDA-MB-436 [22]) [%] | normalised response (HCC1937 [23]) [%] | normalised response (MDA-MB-468 [24]) [%] | normalised response (CAL-51 [25]) [%] | normalised response (BT-474 [26]) [%] | normalised response (Hs578T [27]) [%] | normalised response (DU-4475 [28]) [%] | normalised response (MFM-223 [29]) [%] | normalised response (CAL-85-1 [30]) [%] | normalised response (MDA-MB-231 [31]) [%] | normalised response (CAL-148 [32]) [%] | normalised response (BT-549 [33]) [%] | normalised response (MDA-MB-453 [34]) [%] | normalised response (HCC1143 [35]) [%] | normalised response (HDQ-P1 [36]) [%]
1 | Nc1ccn([C@@H]2O[C@H](CO)[C@@H](O)C2(F)F)c(=O)n1 [Gemcitabine] (10 nM) | 89.5 | 94.9 | 102 | 64.2 | 90.8 | 52.2 | 82 | 89.3 | 99.3 | 102 | 79.6 | 96.8 | 100 | 85.6 | 85.3 | 77.9 | 61.3 | 139 | 68.3 | 100 | 99.7 | 103 | 97.1 | 111 | 48.3 | 84.7 | 97.1 | 102 | 101 | 95.2 | 85 | 97.9 | 36.9 | 92.5 | 105 | 102 | –
2 | CCNC(=O)c1noc(-c2cc(C(C)C)c(O)cc2O)c1-c1ccc(CN2CCOCC2)cc1 [NVP-AUY922] (10 nM) | 111 | 103 | 95 | 56.4 | 95.7 | 32.4 | 99.3 | 116 | 104 | 77.1 | 55.8 | 101 | 70.4 | 107 | 110 | 114 | 73.2 | 101 | 107 | 112 | 93 | 65 | 70.9 | – | 107 | 118 | 95.4 | 105 | 98.7 | 106 | 73.1 | – | 107 | 81.9 | 101 | 119 | 104
3 | CC(C)n1cnc2c(NCCc3ccc(O)cc3)nc(-c3csc4ccccc34)nc21 [StemRegenin 1] (100 nM) | 91 | 112 | 99.5 | 101 | 96.9 | 93.8 | 80.8 | 100 | 103 | 95.2 | 103 | 98.4 | 104 | 98.8 | 112 | 103 | 99.2 | 93.8 | 109 | 99.5 | 102 | 117 | 118 | 98.2 | 105 | 89.2 | 80 | – | 102 | 98.8 | 113 | 111 | 103 | 100 | 109 | 96.3 | 88.2
4 | CCNC(=O)CCC/C=C\C[C@@H]1[C@@H](/C=C/[C@@H](O)CCc2ccccc2)[C@H](O)C[C@@H]1O [Bimatoprost] (55 nM) | 99.4 | 99.7 | 90.1 | 100 | 97.1 | 94 | 90.4 | 97.2 | 94.9 | 94.2 | 91.7 | 94.7 | 104 | 92.4 | 100 | 95.8 | 98.3 | 99.1 | 99.7 | 97.2 | 98.3 | 89.2 | – | 76.7 | – | 103 | 98.7 | 103 | 96.9 | 101 | 83.9 | 99.8 | 95 | 94.8 | 97.6 | 110 | 64.3
